Test results published in US20260055088A1, “HETEROCYCLIC COMPOUND, METHOD FOR PREPARING SAME, AND PHARMACEUTICAL USE THEREOF” (Jiangsu Hengrui Pharmaceuticals Co., Ltd., priority 2022, published 2026).

What was measured:
[1] = Pharmacokinetic evaluation in SD rats (i.g.); format: in vivo; conditions: male, Sprague-Dawley (SD), rat, plasma, po, 2.0 mg/kg; for AUC(0-t): read-out: Area under curve AUC0-t; for CL/F: read-out: Clearance rate CL/F; for half-life: read-out: Half-life T½ (converted); for Cmax: read-out: Plasma concentration Cmax
Method: SD rats were used as test animals. After intragastric (i.g.) administration of the example compounds to SD rats, the plasma concentrations of the compounds at different time points were determined by the LC/MS/MS method. The pharmacokinetic behaviors of the compounds of the present disclosure in SD rats were studied, and their pharmacokinetic profiles were evaluated.
Compounds 16 and 32: Four male SD rats, provided by Vital River Laboratory Animal Technology Co., Ltd. The animals were fasted overnight and then intragastrically dosed.
Compound 38: Two male SD rats, provided by Zhejiang Vital River Laboratory Animal Technology Co., Ltd. The animals were fasted overnight and then intragastrically dosed.
Compounds 16 and 32: Certain amounts of the test compounds were weighed out, and 5% DMSO+5% tween 80+90% normal saline was added to prepare 0.2 mg/mL colorless clear solutions.
Compound 38: A certain amount of the test compound was weighed out, and 25% PEG400+75% (10% TPGS+1% HPMC K100LV) was added to prepare a 5 mg/mL colorless clear solution.
Compounds 16 and 32: The administration dose was 2 mg/kg, and the administration volume was 10.0 mL/kg.
Compound 38: The administration dose was 50 mg/kg, and the administration volume was 10.0 mL/kg.
0.2-mL blood samples were collected from the orbit before administration and 0.25, 0.5, 1.0, 2.0, 4.0, 6.0, 8.0, 11.0, and 24.0 h after administration, placed into EDTA-K2 anticoagulation test tubes, and centrifuged at 10,000 rpm for 1 min (4° C.), and the plasma was separated within 1 h and stored with dry ice before analysis. The procedures from the blood collection to the centrifugation were performed under ice-bath conditions. Access to food was given 2 h after administration.
Compounds 16 and 32: Determination of the plasma concentrations of the test compounds in SD rats after the compounds were administered at different concentrations: A 25-μL sample of the SD rat plasma collected at each time point after administration was taken, and 200 μL of acetonitrile containing an internal standard (verapamil, 100 ng/mL) was added. The mixture was vortexed and centrifuged at 3700 rpm for 10 min. 0.1 μL of the supernatant was taken for LC/MS/MS analysis.
Compound 38: Determination of the plasma concentration of the test compound in SD rats after the compound was administered at different concentrations: A 25-μL sample of the SD rat plasma collected at each time point after administration was taken, and 200 μL of acetonitrile containing an internal standard (dexamethasone, 100 ng/mL) was added. The mixture was vortexed and centrifuged at 4000 rpm for 15 min. 1 μL of the supernatant was taken for LC/MS/MS analysis.

[2] = Effect on body weight in rat incision pain model; format: in vivo, SD rats; conditions: i.g./one dose
Method: Nine SD rats, weighing 170-190 g, were selected for this study. The mechanical pain threshold was measured using an electronic aesthesiometer. Then an incision pain surgery was performed. During the surgery, after the rats were anesthetized with Zoletil (Zoletil-50, 250 mg, diluted with normal saline to 50 mL after being dissolved, injected at a dose of 2 mL per 200 g of body weight), a 1 cm long incision was made in the middle of the plantar surface of the left hind paw using a No. 10 scalpel blade, cutting through the skin and fascia, and the incision was closed using 3-0 sterile silk sutures. The injured area was disinfected with penicillin, and the animals were returned to their original place to recover overnight. After the overnight recovery, oral gavage administration was performed. Five hours after administration (about 24 h after surgery), the mechanical pain threshold was measured using an electronic aesthesiometer.
The analgesic efficacy of the compound of Example 16 in the rat incision pain model is shown in FIG. 3 and Table 7, and its effect on body weight is shown in FIG. 4. The analgesic efficacy of the compound of Example 32 in the rat incision pain model is shown in FIG. 5 and Table 7, and its effect on body weight is shown in FIG. 6.

Structure (SMILES) | bioavailability [1] [%] | AUC(0-t) [1] [ng·h/mL] | CL/F [1] [mL/min/kg] | half-life [1] [min] | Cmax [1] [ng/mL] | Effect on body weight of rats [2]
CO/N=C(\N)c1cc(NC(=O)[C@@H]2O[C@@](C)(C(F)(F)F)[C@@H](C)[C@H]2c2ccc(F)c(F)c2OC)ccn1 [Example 16] | 51.3 | 329 | 101 | 546 | 120 | did not influence the body weight of rats
COc1c([C@H]2[C@H](C(=O)Nc3ccnc(/C(N)=N/O)c3)O[C@@](C)(C(F)(F)F)[C@H]2C)ccc(F)c1F [Example 32] | 24.7 | 321 | 96.9 | 156 | 85.7 | did not influence the body weight of rats
